Test results from patent publication US20150329558A1, “FUSED HETEROCYCLIC COMPOUNDS AS ION CHANNEL MODULATORS” (Gilead Sciences, Inc., priority 2011, published 2015).
Read-outs that look alike come from different tables or passages of the source.

How the values were obtained:
[1] = molecular target: wild-type human cardiac sodium channel, hNav1.5 (late INa) (Homo sapiens, UniProt Q14524); experiment: Late INa screening assay (QPatch whole cell patch clamp); assay type: cell-based
Method in brief: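 HEK293 cells stably expressing hNav1.5 alpha subunit without beta subunits, QPatch automated whole-cell clamp at 23-25° C, CsF-based internal solution pH 7.4. Late INa induced by 10 μM tefluthrin; 250 ms steps to −20 mV from −120 mV at 0.1 Hz, compounds at 1 μM. Percent block of mean current 225–250 ms into the step.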

[2] = Microsomal stability assay, human; assay type: in vitro ADME; details: metabolic stability, human liver microsomes 0.5 mg/mL, substrate 3 uM
Method in brief: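 Liver microsomes at 0.5 mg/mL protein in 100 mM KPO4 buffer, incubated with 3 uM compound and NADPH-regenerating system, run in duplicate. Samples taken at 2, 12, 25, 45 and 65 min and quenched in MeOH/ACN/water before analysis.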

[3] = molecular target: hERG potassium channel (Homo sapiens, UniProt Q12809); experiment: hERG screening assay (PatchXpress, CHO cells); assay type: cell-based; details: % inhibition at 1 μM
Sequence of hERG potassium channel (Q12809 whole entry): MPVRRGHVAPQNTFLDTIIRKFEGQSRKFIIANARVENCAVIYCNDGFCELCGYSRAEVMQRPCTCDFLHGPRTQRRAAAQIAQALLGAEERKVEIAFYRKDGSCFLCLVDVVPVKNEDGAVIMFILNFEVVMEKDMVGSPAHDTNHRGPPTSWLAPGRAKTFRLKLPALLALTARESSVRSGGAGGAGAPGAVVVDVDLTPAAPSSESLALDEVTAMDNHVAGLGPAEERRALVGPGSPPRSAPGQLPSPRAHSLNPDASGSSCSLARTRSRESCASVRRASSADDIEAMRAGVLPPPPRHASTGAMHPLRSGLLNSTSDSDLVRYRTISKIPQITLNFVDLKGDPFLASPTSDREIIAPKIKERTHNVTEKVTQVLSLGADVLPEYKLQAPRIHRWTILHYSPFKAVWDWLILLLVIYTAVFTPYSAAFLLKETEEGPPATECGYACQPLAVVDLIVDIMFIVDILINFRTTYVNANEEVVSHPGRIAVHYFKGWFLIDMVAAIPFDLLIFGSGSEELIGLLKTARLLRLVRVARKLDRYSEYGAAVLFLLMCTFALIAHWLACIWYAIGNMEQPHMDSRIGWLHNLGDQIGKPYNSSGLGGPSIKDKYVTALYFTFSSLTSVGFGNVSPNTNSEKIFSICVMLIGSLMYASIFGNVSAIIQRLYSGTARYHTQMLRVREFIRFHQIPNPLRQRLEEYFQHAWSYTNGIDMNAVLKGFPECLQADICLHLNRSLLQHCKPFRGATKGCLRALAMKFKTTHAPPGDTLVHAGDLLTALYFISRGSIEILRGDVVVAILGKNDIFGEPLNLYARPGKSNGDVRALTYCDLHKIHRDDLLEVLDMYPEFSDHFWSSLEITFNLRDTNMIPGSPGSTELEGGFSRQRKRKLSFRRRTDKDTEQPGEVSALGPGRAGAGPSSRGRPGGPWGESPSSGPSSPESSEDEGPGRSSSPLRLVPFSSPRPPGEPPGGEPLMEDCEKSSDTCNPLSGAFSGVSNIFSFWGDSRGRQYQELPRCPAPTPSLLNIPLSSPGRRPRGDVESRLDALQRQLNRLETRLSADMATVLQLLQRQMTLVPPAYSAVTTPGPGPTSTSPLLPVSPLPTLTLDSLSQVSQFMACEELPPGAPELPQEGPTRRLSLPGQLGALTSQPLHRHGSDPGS
Description: Compounds were also tested for their effect to block the hERG K^+ channel.
Compounds were screened to test their activity in blocking the hERG potassium channel at AVIVA Biosciences (San Deigo, Calif., USA). The hERG channel is heterologously expressed in a CHO (Chinese Hamster Ovary) cell line. Cells were maintained with standard tissue culture procedures and stable channel expression was maintained with 500 μg/mL G418 in the culture medium. Cells were harvested for testing on the PatchXpress 7000A automated patch clamp with Accumax (Innovative Cell Technologies, San Diego, Calif.) to isolate single cells.
The following solutions were used for electrophysiological recordings. The external solution contained: 2 mM CaCl2; 2 mM MgCl2; 4 mM KCl; 150 mM NaCl; 10 mM Glucose; 10 mM HEPES (pH 7.4 with 1M NaOH; osmolarity, ˜310 mOsm). The internal solution contained: 140 mM KCl, 10 mM MgCl2, 6 mM EGTA, 5 mM HEPES, 5 mM ATP (pH adjusted to 7.25 with KOH; osmolarity, ˜295 mOsm).
hERG channels were activated when the voltage was first stepped to −50 mV for 300 ms from the −80 mV holding potential and then stepped to +20 mV for 5 seconds. At +20 mV the channels open and then largely inactivate, so the currents are relatively small. Upon returning to −50 mV from +20 mV, hERG currents transiently become much larger as inactivation is rapidly removed and then the channel closes. The first step to −50 mV for 300 ms was used as a baseline for measuring the peak amplitude during the step to −50 mV after channel activation. The peak tail current at −50 mV was measured both under control conditions and after addition of compound, each cell serving as its own control.
All compounds were prepared as 10 mM DMSO stocks in glass vials. Stock solutions were mixed by vigorous vortexing and sonication for about 2 minutes at room temperature. For testing, compounds were diluted in glass vials using an intermediate dilution step in pure DMSO and then further diluted to working concentrations in external solution. Dilutions were prepared no longer than 20 minutes before use.
For the electrophysiological recordings, after achieving the whole-cell configuration, cells were monitored for 90 seconds to assess stability and washed with external solution for 66 seconds. The voltage protocol described above was then applied to the cells every 12 seconds and throughout the whole procedure. Only cells with stable recording parameters and meeting specified health criteria were allowed to enter the compound addition procedure.
External solution containing 0.1% DMSO (vehicle) was applied to the cells first to establish the control peak current amplitude. After allowing the current to stabilize for 3 to 5 minutes, 1 μM and then 10 μM test compounds were applied. Each compound concentration was added 4 times and cells were kept in test solution until the effect of the compound reached steady state or for a maximum of 12 minutes. After addition of test compound, a positive control (1 μM Cisapride) was added and must block >95% of the current for the experiment to be considered valid. Washout in the external solution compartment was performed until the recovery of the current reached steady state.

[4] = % inhibition at 1 μM, read-out: NAv1.5*-LATE-
[5] = percent block of late INa, compound at 1 μM, 10 μM Tefluthrin, HEK293 hNav1.5, read-out: Late INa 1 μM

Sequence of wild-type human cardiac sodium channel, hNav1.5 (late INa) (Q14524 whole entry): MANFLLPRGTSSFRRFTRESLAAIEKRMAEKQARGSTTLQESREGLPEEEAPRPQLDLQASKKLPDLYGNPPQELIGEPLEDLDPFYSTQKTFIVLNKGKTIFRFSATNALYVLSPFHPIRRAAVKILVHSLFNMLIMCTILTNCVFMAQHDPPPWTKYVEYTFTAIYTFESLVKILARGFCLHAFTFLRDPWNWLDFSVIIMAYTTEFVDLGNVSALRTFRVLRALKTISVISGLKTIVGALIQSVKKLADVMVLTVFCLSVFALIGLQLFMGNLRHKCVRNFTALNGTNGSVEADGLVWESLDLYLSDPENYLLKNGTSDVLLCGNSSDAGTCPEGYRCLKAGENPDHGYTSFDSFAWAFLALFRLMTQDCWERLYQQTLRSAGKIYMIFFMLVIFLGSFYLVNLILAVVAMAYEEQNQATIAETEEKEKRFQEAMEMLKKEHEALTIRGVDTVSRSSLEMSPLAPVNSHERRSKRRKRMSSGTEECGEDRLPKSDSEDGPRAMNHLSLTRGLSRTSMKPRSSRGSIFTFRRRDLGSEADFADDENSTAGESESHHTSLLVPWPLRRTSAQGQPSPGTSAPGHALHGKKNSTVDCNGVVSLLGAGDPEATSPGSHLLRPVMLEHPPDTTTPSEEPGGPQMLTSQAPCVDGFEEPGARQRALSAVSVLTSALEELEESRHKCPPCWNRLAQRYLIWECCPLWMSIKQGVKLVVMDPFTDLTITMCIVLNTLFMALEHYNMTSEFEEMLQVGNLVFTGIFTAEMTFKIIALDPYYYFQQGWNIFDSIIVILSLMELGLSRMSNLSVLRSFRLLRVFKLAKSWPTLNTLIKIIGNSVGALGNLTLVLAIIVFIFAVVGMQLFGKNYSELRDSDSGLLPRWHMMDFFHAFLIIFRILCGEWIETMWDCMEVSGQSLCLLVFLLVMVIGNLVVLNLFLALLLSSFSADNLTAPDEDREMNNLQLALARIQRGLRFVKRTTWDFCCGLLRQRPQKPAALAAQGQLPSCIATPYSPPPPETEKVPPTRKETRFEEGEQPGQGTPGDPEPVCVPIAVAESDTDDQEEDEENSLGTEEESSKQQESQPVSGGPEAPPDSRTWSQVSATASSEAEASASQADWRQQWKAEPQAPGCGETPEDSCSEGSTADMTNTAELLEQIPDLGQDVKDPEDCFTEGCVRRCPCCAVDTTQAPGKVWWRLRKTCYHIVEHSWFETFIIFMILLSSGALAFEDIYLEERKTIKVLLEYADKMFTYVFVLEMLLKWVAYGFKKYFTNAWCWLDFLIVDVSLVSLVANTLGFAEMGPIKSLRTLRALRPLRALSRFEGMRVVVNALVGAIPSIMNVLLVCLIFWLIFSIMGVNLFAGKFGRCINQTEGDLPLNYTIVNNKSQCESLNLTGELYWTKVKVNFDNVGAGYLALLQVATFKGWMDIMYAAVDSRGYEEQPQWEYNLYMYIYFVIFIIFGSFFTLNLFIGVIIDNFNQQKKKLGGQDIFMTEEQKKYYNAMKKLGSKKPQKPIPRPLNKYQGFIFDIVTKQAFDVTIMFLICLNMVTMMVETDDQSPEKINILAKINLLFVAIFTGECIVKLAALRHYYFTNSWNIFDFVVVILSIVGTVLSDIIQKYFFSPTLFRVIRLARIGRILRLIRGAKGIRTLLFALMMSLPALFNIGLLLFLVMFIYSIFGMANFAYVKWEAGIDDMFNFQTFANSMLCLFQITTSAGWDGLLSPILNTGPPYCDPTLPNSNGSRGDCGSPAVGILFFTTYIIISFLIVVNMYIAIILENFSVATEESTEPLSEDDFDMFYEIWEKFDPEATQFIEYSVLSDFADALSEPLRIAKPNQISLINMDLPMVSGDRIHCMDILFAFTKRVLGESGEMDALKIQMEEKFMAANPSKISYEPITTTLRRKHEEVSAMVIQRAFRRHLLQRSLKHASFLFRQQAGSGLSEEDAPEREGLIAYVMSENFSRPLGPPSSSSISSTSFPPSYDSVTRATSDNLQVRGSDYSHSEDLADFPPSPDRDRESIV

Structure (SMILES) | MS Human THalf [2] | inhibition at 1 µM [1, 4] | inhibition at 1 µM [1, 5] | HERG* [3]
O=c1c2cc(-c3ccc(OC(F)(F)F)cc3)ccc2nnn1CC1(CN2CCOCC2)CC1 [II-40, 3-((1-(morpholinomethyl)cyclopropyl)methyl)-6-(4-(trifluoromethoxy)phenyl)benzo[d][1,2,3]triazin-4(3H)-one] | 2 min | 48% | 48% | 81%
Cc1noc(Cn2cnc3ccc(-c4ccc(OC(F)(F)F)cc4)cc3c2=O)n1 [IV-6, 3-((3-methyl-1,2,4-oxadiazol-5-yl)methyl)-6-(4-(trifluoromethoxy)phenyl)quinazolin-4(3H)-one] | 280 min | 49% | 49% | <10%
Cn1cnc(C(=O)N2CCc3ccc(-c4ccc(C(F)(F)F)cc4)cc3C2)c1 [IX-39, (1-methyl-1H-imidazol-4-yl)(7-(4-(trifluoromethyl)phenyl)-3,4-dihydroisoquinolin-2(1H)-yl)methanone] | > 395 min | 30% | 30% | 35%
O=c1c2cc(-c3ccc(OC(F)(F)F)cc3)ccc2nnn1Cc1nnc(C2CC2)o1 [II-67, 3-((5-cyclopropyl-1,3,4-oxadiazol-2-yl)methyl)-6-(4-(trifluoromethoxy)phenyl)benzo[d][1,2,3]triazin-4(3H)-one] | > 395 min | 47% | 47% | 41%
O=C1c2cc(-c3ccc(OC(F)(F)F)cc3)ccc2OCN1Cc1ncccn1 [VIII-20, 3-(pyrimidin-2-ylmethyl)-6-(4-(trifluoromethoxy)phenyl)-2H-benzo[e][1,3]oxazin-4(3H)-one] |  | 62% | 62% | <10%
O=c1c2cc(-c3ccc(OC(F)(F)F)cc3)ccc2nnn1CCc1ncccn1 [II-18, 3-(2-(pyrimidin-2-yl)ethyl)-6-(4-(trifluoromethoxy)phenyl)benzo[d][1,2,3]triazin-4(3H)-one] | 130 min | 66% | 66% | 30%
O=C(c1ncccn1)N1CCc2ccc(-c3ccc(C(F)(F)F)cc3)cc2C1 [IX-7, pyrimidin-2-yl(7-(4-(trifluoromethyl)phenyl)-3,4-dihydroisoquinolin-2(1H)-yl)methanone] | > 395 min | 46% | 46% | <10%
O=C1c2cc(-c3ccc(OC(F)(F)F)cc3)ccc2CCN1Cc1ncccn1 [IX-1, 2-(pyrimidin-2-ylmethyl)-7-(4-(trifluoromethoxy)phenyl)-3,4-dihydroisoquinolin-1(2H)-one] | > 395 min | 32% | 32% | 17%
O=c1c2cc(-c3ccc(OC(F)(F)F)cc3)ccc2nnn1Cc1noc(-c2ccccn2)n1 [II-54, 3-((5-(pyridin-2-yl)-1,2,4-oxadiazol-3-yl)methyl)-6-(4-(trifluoromethoxy)phenyl)benzo[d][1,2,3]triazin-4(3H)-one] | 329 min | 52% | 52% | 23%
O=C(c1cccnn1)N1CCc2ccc(-c3ccc(C(F)(F)F)cc3)cc2C1 [IX-17, Pyridazin-3-yl(7-(4-(trifluoromethyl)phenyl)-3,4-dihydroisoquinolin-2 (1H)-yl) methanone] | 257 min | 39% | 39% | 76%
O=c1c2cc(-c3ccc(OC(F)(F)F)cc3)ccc2nnn1Cc1noc(C2CC2)n1 [II-14, 3-((5-cyclopropyl-1,2,4-oxadiazol-3-yl)methyl)-6-(4-(trifluoromethoxy)phenyl)benzo[d][1,2,3]triazin-4(3H)-one] | 236 min | 68% | 68% | <10%
O=c1c2cc(-c3ccc(OC(F)(F)F)cc3)ccc2nnn1CCc1ccncn1 [II-17, 3-(2-(pyrimidin-4-yl)ethyl)-6-(4-(trifluoromethoxy)phenyl)benzo[d][1,2,3]triazin-4(3H)-one] | 101 min | 61% | 61% | 42%
Cc1nc(Cn2cnc3ccc(-c4ccc(OC(F)(F)F)cc4)cc3c2=O)no1 [IV-9, 3-((5-methyl-1,2,4-oxadiazol-3-yl)methyl)-6-(4-(trifluoromethoxy)phenyl)quinazolin-4(3H)-one] | > 395 min | 42% | 42% | <10%
N#Cc1ccnc(OCCn2nnc3ccc(-c4ccc(OC(F)(F)F)cc4)cc3c2=O)n1 [II-36, 2-(2-(4-oxo-6-(4-(trifluoromethoxy)phenyl)benzo[d][1,2,3]triazin-3(4H)-yl)ethoxy)pyrimidine-4-carbonitrile] | 157 min | 43% | 43% | 21%

Second part, led by results:

MS Human THalf [2] | Structure (SMILES) | inhibition at 1 µM [1, 4] | inhibition at 1 µM [1, 5] | HERG* [3]
130 min | COc1cc(OC)nc(Cn2ncc3ccc(-c4ccc(OC(F)(F)F)cc4)cc3c2=O)n1 [III-19, 2-((4,6-dimethoxypyrimidin-2-yl)methyl)-7-(4-(trifluoromethoxy)phenyl)phthalazin-1 (2H)-one] | 56% | 56% | 23%
100 min | O=c1c2cc(-c3ccc(OC(F)(F)F)cc3)ccc2cnn1CCn1cccn1 [III-9, 2-(2-(1H-pyrazol-1-yl)ethyl)-7-(4-(trifluoromethoxy)phenyl)phthalazin-1(2H)-one] | 57% | 57% | 37%
30 min | O=c1c2cc(-c3ccc(OC(F)(F)F)cc3)ccc2cnn1Cc1ncccn1 [III-5, 2-(pyrimidin-2-ylmethyl)-7-(4-(trifluoromethoxy)phenyl)phthalazin-1(2H)-one] | 44% | 44% | 13%
221 min | CC1Oc2ccc(-c3ccc(OC(F)(F)F)cc3)cc2C(=O)N1Cc1ncccn1 (stereo not shown) [VIII-7, 2-methyl-3-(pyrimidin-2-ylmethyl)-6-(4-(trifluoromethoxy)phenyl)-2H-benzo[e][1,3]oxazin-4(3H)-one] | 22% | 22% | <10%
170 min | O=c1c2cc(-c3ccc(OC(F)(F)F)cc3)ccc2cnn1CCOc1ncccn1 [III-28, 2-(2-(pyrimidin-2-yloxy)ethyl)-7-(4-(trifluoromethoxy)phenyl)phthalazin-1 (2H)-one] | 75% | 75% | 51%
285 min | O=C1c2cc(-c3ccc(OC(F)(F)F)cc3)ccc2OCN1Cc1ccccn1 [VIII-3, 3-(pyridin-2-ylmethyl)-6-(4-(trifluoromethoxy)phenyl)-2H-benzo[e][1,3]oxazin-4(3H)-one] | 58% | 58% | <10%
125 min | O=C1c2cc(-c3ccc(C(F)(F)F)cc3)ccc2OCN1Cc1ccccn1 [VIII-1, 3-(pyridin-2-ylmethyl)-6-(4-(trifluoromethyl)phenyl)-2H-benzo[e][1,3]oxazin-4(3H)-one] | 52% | 52% | 
